Organism: Rattus norvegicus
Experiment: DrugMatrix - Regimen: Daily Repeat
Type: toxicity, organism-based, Sprague-Dawley
Set-up: regimen Daily Repeat, gender Male, age 6-8 weeks
Conditions: in vivo, po, route oral GAVAGE, vehicle .5 % CMC; for ABSOLUTE BASOPHIL / ABSOLUTE EOSINOPHIL / ABSOLUTE LYMPHOCYTE / ABSOLUTE MONOCYTE / ABSOLUTE SEGMENTED NEUTROPHIL / BASOPHIL / EOSINOPHIL / ERYTHROCYTE COUNT / HEMATOCRIT / HEMOGLOBIN / LEUKOCYTE COUNT / LYMPHOCYTE / MEAN CORPUSCULAR HEMOGLOBIN / MEAN CORPUSCULAR HEMOGLOBIN CONCENTRATION / MEAN CORPUSCULAR VOLUME / MONOCYTE / NEUTROPHIL / NUCLEATED RED BLOOD CELLS / PLATELET COUNT: tissue Blood; for ALANINE AMINOTRANSFERASE / ALBUMIN / ALKALINE PHOSPHATASE / ASPARTATE AMINOTRANSFERASE / BLOOD UREA NITROGEN / CARBON DIOXIDE / CHLORIDE / CHOLESTEROL / CREATINE PHOSPHOKINASE / CREATININE / GLUCOSE / LACTATE DEHYDROGENASE / LIPASE / PHOSPHORUS / POTASSIUM / SODIUM / TOTAL BILIRUBIN / TOTAL PROTEIN / URIC ACID: tissue Plasma
[1] = 80 mg/kg, 72 h, dose level Low, time 3 day
[2] = 80 mg/kg, 120 h, dose level Low, time 5 day
[3] = 1500 mg/kg, 72 h, dose level High, time 3 day
[4] = 1500 mg/kg, 120 h, dose level High, time 5 day

Cc1cc(=O)n(-c2ccccc2)n1C [ANTIPYRINE]
ABSOLUTE BASOPHIL [1]: 0 CELLS/uL
ABSOLUTE EOSINOPHIL [1]: 91.33 CELLS/uL
ABSOLUTE LYMPHOCYTE [1]: 12252 CELLS/uL
ABSOLUTE MONOCYTE [1]: 196 CELLS/uL
ABSOLUTE SEGMENTED NEUTROPHIL [1]: 1827.33 CELLS/uL
BASOPHIL [1]: 0%
EOSINOPHIL [1]: 0.67%
ERYTHROCYTE COUNT [1]: 5.35 x10E6/uL
HEMATOCRIT [1]: 34.23%
HEMOGLOBIN [1]: 13.5 G/DL
LEUKOCYTE COUNT [1]: 14.37 x10E3/uL
LYMPHOCYTE [1]: 86%
MEAN CORPUSCULAR HEMOGLOBIN [1]: 25.27 pg
MEAN CORPUSCULAR HEMOGLOBIN CONCENTRATION [1]: 39.43 G/DL
MEAN CORPUSCULAR VOLUME [1]: 64 fL
MONOCYTE [1]: 1.33%
NEUTROPHIL [1]: 12%
NUCLEATED RED BLOOD CELLS [1]: 0.33 /100WBC
PLATELET COUNT [1]: 1283.67 x10E3/uL
ALANINE AMINOTRANSFERASE [1]: 47.67 u/L
ALBUMIN [1]: 4.47 G/DL
ALKALINE PHOSPHATASE [1]: 419 u/L
ASPARTATE AMINOTRANSFERASE [1]: 82 u/L
BLOOD UREA NITROGEN [1]: 18 mg/dL
CARBON DIOXIDE [1]: 23.33 mmol/L
CHLORIDE [1]: 103.67 MEQ/L
CHOLESTEROL [1]: 77 mg/dL
CREATINE PHOSPHOKINASE [1]: 225 u/L
CREATININE [1]: 0.22 mg/dL
GLUCOSE [1]: 163 mg/dL
LACTATE DEHYDROGENASE [1]: 184 u/L
LIPASE [1]: 9.67 u/L
PHOSPHORUS [1]: 13.9 mg/dL
POTASSIUM [1]: 7.07 MEQ/L
SODIUM [1]: 147.1 MEQ/L
TOTAL BILIRUBIN [1]: 0.27 mg/dL
TOTAL PROTEIN [1]: 6.23 G/DL
URIC ACID [1]: 1.77 mg/dL
ABSOLUTE BASOPHIL [2]: 0 CELLS/uL
ABSOLUTE EOSINOPHIL [2]: 104 CELLS/uL
ABSOLUTE LYMPHOCYTE [2]: 12025 CELLS/uL
ABSOLUTE MONOCYTE [2]: 0 CELLS/uL
ABSOLUTE SEGMENTED NEUTROPHIL [2]: 871 CELLS/uL
BASOPHIL [2]: 0%
EOSINOPHIL [2]: 0.67%
ERYTHROCYTE COUNT [2]: 5.47 x10E6/uL
HEMATOCRIT [2]: 35.87%
HEMOGLOBIN [2]: 13.93 G/DL
LEUKOCYTE COUNT [2]: 13 x10E3/uL
LYMPHOCYTE [2]: 92.33%
MEAN CORPUSCULAR HEMOGLOBIN [2]: 25.53 pg
MEAN CORPUSCULAR HEMOGLOBIN CONCENTRATION [2]: 38.9 G/DL
MEAN CORPUSCULAR VOLUME [2]: 65.6 fL
MONOCYTE [2]: 0%
NEUTROPHIL [2]: 7%
NUCLEATED RED BLOOD CELLS [2]: 0.33 /100WBC
PLATELET COUNT [2]: 1274.33 x10E3/uL
ALANINE AMINOTRANSFERASE [2]: 48 u/L
ALBUMIN [2]: 4.27 G/DL
ALKALINE PHOSPHATASE [2]: 367.33 u/L
ASPARTATE AMINOTRANSFERASE [2]: 83 u/L
BLOOD UREA NITROGEN [2]: 15.67 mg/dL
CARBON DIOXIDE [2]: 26.33 mmol/L
CHLORIDE [2]: 101 MEQ/L
CHOLESTEROL [2]: 76.33 mg/dL
CREATINE PHOSPHOKINASE [2]: 353 u/L
CREATININE [2]: 0.16 mg/dL
GLUCOSE [2]: 179.67 mg/dL
LACTATE DEHYDROGENASE [2]: 147.67 u/L
LIPASE [2]: 8.67 u/L
PHOSPHORUS [2]: 12.13 mg/dL
POTASSIUM [2]: 7.07 MEQ/L
SODIUM [2]: 141.77 MEQ/L
TOTAL BILIRUBIN [2]: 0.13 mg/dL
TOTAL PROTEIN [2]: 5.97 G/DL
URIC ACID [2]: 2.27 mg/dL
ABSOLUTE BASOPHIL [3]: 0 CELLS/uL
ABSOLUTE EOSINOPHIL [3]: 55 CELLS/uL
ABSOLUTE LYMPHOCYTE [3]: 14551 CELLS/uL
ABSOLUTE MONOCYTE [3]: 220 CELLS/uL
ABSOLUTE SEGMENTED NEUTROPHIL [3]: 1207.33 CELLS/uL
BASOPHIL [3]: 0%
EOSINOPHIL [3]: 0.33%
ERYTHROCYTE COUNT [3]: 5.53 x10E6/uL
HEMATOCRIT [3]: 35.67%
HEMOGLOBIN [3]: 14.13 G/DL
LEUKOCYTE COUNT [3]: 16.03 x10E3/uL
LYMPHOCYTE [3]: 90.67%
MEAN CORPUSCULAR HEMOGLOBIN [3]: 25.6 pg
MEAN CORPUSCULAR HEMOGLOBIN CONCENTRATION [3]: 39.63 G/DL
MEAN CORPUSCULAR VOLUME [3]: 64.5 fL
MONOCYTE [3]: 1.33%
NEUTROPHIL [3]: 7.67%
NUCLEATED RED BLOOD CELLS [3]: 0.33 /100WBC
PLATELET COUNT [3]: 1257 x10E3/uL
ALANINE AMINOTRANSFERASE [3]: 71 u/L
ALBUMIN [3]: 4.27 G/DL
ALKALINE PHOSPHATASE [3]: 404.67 u/L
ASPARTATE AMINOTRANSFERASE [3]: 85 u/L
BLOOD UREA NITROGEN [3]: 14 mg/dL
CARBON DIOXIDE [3]: 37 mmol/L
CHLORIDE [3]: 99.33 MEQ/L
CHOLESTEROL [3]: 76 mg/dL
CREATINE PHOSPHOKINASE [3]: 183.33 u/L
CREATININE [3]: 0.17 mg/dL
GLUCOSE [3]: 141.67 mg/dL
LACTATE DEHYDROGENASE [3]: 103.33 u/L
LIPASE [3]: 9.67 u/L
PHOSPHORUS [3]: 10.07 mg/dL
POTASSIUM [3]: 6.57 MEQ/L
SODIUM [3]: 143.77 MEQ/L
TOTAL BILIRUBIN [3]: 0.2 mg/dL
TOTAL PROTEIN [3]: 5.83 G/DL
URIC ACID [3]: 1.53 mg/dL
ABSOLUTE BASOPHIL [4]: 0 CELLS/uL
ABSOLUTE EOSINOPHIL [4]: 0 CELLS/uL
ABSOLUTE LYMPHOCYTE [4]: 19193.67 CELLS/uL
ABSOLUTE MONOCYTE [4]: 792.67 CELLS/uL
ABSOLUTE SEGMENTED NEUTROPHIL [4]: 3680.33 CELLS/uL
BASOPHIL [4]: 0%
EOSINOPHIL [4]: 0%
ERYTHROCYTE COUNT [4]: 5.35 x10E6/uL
HEMATOCRIT [4]: 35.1%
HEMOGLOBIN [4]: 14.13 G/DL
LEUKOCYTE COUNT [4]: 23.67 x10E3/uL
LYMPHOCYTE [4]: 81.33%
MEAN CORPUSCULAR HEMOGLOBIN [4]: 26.43 pg
MEAN CORPUSCULAR HEMOGLOBIN CONCENTRATION [4]: 40.27 G/DL
MEAN CORPUSCULAR VOLUME [4]: 65.7 fL
MONOCYTE [4]: 3.67%
NEUTROPHIL [4]: 15%
NUCLEATED RED BLOOD CELLS [4]: 0.33 /100WBC
PLATELET COUNT [4]: 1282 x10E3/uL
ALANINE AMINOTRANSFERASE [4]: 57.67 u/L
ALBUMIN [4]: 4.27 G/DL
ALKALINE PHOSPHATASE [4]: 338.33 u/L
ASPARTATE AMINOTRANSFERASE [4]: 86 u/L
BLOOD UREA NITROGEN [4]: 16.33 mg/dL
CARBON DIOXIDE [4]: 36 mmol/L
CHLORIDE [4]: 103 MEQ/L
CHOLESTEROL [4]: 72.33 mg/dL
CREATINE PHOSPHOKINASE [4]: 309 u/L
CREATININE [4]: 0.24 mg/dL
GLUCOSE [4]: 135 mg/dL
LACTATE DEHYDROGENASE [4]: 379.67 u/L
LIPASE [4]: 10 u/L
PHOSPHORUS [4]: 10.8 mg/dL
POTASSIUM [4]: 7.71 MEQ/L
SODIUM [4]: 141.33 MEQ/L
TOTAL BILIRUBIN [4]: 0.2 mg/dL
TOTAL PROTEIN [4]: 5.9 G/DL
URIC ACID [4]: 1.2 mg/dL
